Results reported in ChEMBL document CHEMBL4406913, “INCB050465 (Parsaclisib), a Novel Next-Generation Inhibitor of Phosphoinositide 3-Kinase Delta (PI3Kδ)” (ACS Med Chem Lett, 2019).

Experiments:
[1] = molecular target: T1, Phosphatidylinositol 4,5-bisphosphate 3-kinase catalytic subunit delta isoform (Homo sapiens, UniProt O00329); experiment: Inhibition of PI3Kdelta (unknown origin) using D-myophosphatidylinositol 4,5-bisphosphate as substrate incubated for 120 mins by [gamma-33P]-ATP based scintillation counting method
T1 sequence (O00329 whole entry): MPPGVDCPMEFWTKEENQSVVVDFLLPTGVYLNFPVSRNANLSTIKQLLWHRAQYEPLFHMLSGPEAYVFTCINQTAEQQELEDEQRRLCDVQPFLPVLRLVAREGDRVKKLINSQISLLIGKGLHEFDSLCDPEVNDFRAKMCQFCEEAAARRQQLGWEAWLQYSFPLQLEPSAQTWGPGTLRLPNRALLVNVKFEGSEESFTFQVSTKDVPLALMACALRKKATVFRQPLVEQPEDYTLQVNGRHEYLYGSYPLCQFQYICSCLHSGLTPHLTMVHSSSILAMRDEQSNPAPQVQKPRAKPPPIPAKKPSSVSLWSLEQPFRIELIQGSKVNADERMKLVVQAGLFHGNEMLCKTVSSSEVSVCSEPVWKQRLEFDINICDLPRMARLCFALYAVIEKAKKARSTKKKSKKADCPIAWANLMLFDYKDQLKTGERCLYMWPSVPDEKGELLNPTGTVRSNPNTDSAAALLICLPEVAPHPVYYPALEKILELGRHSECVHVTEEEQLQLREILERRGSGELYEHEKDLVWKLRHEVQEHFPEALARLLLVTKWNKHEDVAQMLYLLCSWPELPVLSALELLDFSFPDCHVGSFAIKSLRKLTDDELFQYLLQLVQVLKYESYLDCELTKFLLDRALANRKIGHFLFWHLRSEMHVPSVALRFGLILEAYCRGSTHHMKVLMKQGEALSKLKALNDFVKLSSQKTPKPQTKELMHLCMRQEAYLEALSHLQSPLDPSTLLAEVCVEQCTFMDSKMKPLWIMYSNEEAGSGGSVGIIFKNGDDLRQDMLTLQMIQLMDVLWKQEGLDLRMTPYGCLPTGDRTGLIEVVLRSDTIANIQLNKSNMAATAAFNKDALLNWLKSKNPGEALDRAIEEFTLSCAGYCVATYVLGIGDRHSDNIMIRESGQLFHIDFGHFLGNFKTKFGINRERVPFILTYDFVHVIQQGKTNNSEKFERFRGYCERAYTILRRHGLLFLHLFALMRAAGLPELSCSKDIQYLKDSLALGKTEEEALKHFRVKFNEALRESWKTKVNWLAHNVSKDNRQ

[2] = molecular target: Phosphatidylinositol 4,5-bisphosphate 3-kinase catalytic subunit alpha isoform (Homo sapiens, UniProt P42336); experiment: Inhibition of PI3Kalpha (unknown origin) using D-myophosphatidylinositol 4,5-bisphosphate as substrate incubated for 120 mins by [gamma-33P]-ATP based scintillation counting method
[3] = molecular target: Phosphatidylinositol 4,5-bisphosphate 3-kinase catalytic subunit beta isoform (Homo sapiens, UniProt P42338); experiment: Inhibition of PI3Kbeta (unknown origin) using D-myophosphatidylinositol 4,5-bisphosphate as substrate incubated for 120 mins by [gamma-33P]-ATP based scintillation counting method
Cytochrome P450 2C19 = Cytochrome P450 2C19 (Homo sapiens, UniProt P33261); experiment: Inhibition of CYP2C19 in human liver microsomes at 0.1 to 25 uM using S-mephenytoin as substrate by LC/MS analysis; assay type: ADME
Chain of Cytochrome P450 2C19 (P33261 whole entry): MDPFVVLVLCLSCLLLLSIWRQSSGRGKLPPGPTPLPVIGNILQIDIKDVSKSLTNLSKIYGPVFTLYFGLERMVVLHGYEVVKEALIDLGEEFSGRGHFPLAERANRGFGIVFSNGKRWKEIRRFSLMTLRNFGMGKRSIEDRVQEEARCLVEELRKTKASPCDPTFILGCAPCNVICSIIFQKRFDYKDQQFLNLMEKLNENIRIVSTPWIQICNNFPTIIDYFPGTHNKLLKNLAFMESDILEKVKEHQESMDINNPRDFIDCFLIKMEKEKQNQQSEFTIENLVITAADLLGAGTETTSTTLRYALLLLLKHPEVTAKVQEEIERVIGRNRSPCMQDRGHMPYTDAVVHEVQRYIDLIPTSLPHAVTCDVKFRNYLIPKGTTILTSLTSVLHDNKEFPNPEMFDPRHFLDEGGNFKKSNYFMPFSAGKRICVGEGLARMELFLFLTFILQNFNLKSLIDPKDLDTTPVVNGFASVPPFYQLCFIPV

Chain of Phosphatidylinositol 4,5-bisphosphate 3-kinase catalytic subunit alpha isoform (P42336 whole entry, canonical isoform): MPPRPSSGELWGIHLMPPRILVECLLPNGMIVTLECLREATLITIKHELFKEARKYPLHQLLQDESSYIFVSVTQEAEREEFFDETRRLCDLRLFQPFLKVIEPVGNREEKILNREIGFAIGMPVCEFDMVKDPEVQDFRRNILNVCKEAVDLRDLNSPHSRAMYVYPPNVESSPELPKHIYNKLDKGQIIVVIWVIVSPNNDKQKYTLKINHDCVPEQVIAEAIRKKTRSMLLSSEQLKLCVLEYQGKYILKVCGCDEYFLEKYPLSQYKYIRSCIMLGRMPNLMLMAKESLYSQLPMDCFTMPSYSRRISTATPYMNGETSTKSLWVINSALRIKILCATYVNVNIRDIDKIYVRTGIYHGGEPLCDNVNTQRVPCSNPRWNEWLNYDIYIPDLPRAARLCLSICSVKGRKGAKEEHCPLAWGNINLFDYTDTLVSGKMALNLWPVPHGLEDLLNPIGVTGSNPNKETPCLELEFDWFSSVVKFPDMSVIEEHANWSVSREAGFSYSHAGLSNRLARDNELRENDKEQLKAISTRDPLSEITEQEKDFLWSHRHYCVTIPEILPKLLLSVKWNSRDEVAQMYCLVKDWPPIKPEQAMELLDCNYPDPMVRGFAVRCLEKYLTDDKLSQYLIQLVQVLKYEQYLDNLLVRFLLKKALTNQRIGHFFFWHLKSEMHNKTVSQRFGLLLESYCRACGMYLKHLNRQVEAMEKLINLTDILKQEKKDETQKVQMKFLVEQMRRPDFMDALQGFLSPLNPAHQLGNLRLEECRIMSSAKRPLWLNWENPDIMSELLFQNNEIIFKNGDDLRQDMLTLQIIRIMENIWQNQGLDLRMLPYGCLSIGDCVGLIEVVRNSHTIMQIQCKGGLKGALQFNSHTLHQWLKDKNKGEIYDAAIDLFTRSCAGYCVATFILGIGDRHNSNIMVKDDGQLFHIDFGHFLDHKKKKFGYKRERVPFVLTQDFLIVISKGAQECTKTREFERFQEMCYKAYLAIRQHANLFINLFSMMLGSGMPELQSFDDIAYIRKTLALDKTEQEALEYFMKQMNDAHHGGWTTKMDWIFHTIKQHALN
Chain of Phosphatidylinositol 4,5-bisphosphate 3-kinase catalytic subunit beta isoform (P42338 whole entry, canonical isoform): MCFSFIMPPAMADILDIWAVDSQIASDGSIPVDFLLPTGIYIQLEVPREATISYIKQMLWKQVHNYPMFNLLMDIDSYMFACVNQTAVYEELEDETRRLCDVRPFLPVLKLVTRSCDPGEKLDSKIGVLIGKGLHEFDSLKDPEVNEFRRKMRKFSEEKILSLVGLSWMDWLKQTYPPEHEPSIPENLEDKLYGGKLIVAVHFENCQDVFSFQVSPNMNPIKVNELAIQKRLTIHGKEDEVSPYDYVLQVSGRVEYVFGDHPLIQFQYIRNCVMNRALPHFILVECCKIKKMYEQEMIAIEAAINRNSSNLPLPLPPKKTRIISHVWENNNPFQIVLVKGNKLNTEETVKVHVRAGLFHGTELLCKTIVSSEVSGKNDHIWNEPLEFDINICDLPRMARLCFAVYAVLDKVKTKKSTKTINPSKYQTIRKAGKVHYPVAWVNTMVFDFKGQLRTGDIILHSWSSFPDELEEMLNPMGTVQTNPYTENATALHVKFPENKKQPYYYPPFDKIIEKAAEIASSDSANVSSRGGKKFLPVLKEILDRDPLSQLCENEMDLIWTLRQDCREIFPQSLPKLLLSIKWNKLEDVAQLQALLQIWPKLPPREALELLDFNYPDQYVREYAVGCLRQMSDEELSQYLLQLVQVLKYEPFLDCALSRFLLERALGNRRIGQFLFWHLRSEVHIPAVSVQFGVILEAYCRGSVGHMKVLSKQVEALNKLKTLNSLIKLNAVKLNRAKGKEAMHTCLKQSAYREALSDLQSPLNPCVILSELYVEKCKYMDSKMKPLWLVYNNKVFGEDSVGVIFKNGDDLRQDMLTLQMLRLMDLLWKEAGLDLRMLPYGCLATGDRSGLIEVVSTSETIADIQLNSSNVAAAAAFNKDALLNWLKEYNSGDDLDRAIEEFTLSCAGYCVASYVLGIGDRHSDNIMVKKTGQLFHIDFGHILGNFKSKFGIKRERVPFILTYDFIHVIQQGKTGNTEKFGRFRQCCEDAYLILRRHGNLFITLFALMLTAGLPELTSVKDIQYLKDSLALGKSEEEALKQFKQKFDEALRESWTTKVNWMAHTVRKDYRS

In the case of `CCOc1c([C@H](C)n2nc(C)c3c(N)ncnc32)cc(Cl)c(F)c1[C@@H]1CNC(=O)C1` [PARSACLISIB], the IC50 [1] is reported as 0.0011 µM, the IC50 [2] is reported as > 20 µM and the IC50 [3] is reported as > 20 µM. For the same compound, the “inhibition (INH)” value (Cytochrome P450 2C19) was “Not Active”.
